Measurements from ChEMBL document CHEMBL1126576, “Structure-activity relationships of the antimalarial agent artemisinin. 1. Synthesis and comparative molecular field analysis of C-9 analogs of artemisinin and 10-deoxoartemisinin” (1993).
The source made the active and inactive calls. No cut-off for these calls is given here.

Assays:
Plasmodium falciparum [1] = experiment: Relative activity against Plasmodium falciparum W2 Indochina compared to artemisinin; type: functional
Plasmodium falciparum [2] = experiment: Relative activity against Plasmodium falciparum D6 (Sierra Leone) compared to artemisinin; type: functional
Plasmodium falciparum [3] = experiment: In vitro relative potency against Plasmodium falciparum Sierra Leone D6; type: functional
Plasmodium falciparum [4] = experiment: Relative activity compared to artemisinin against Plasmodium falciparum D6 (Sierra Leone); Not active; type: functional, organism-based
Plasmodium falciparum [5] = experiment: Relative activity compared to artemisinin against Plasmodium falciparum Indochina W-2; Not active; type: functional, organism-based
Plasmodium falciparum [6] = experiment: Relative activity compared to artemisinin against Plasmodium falciparum Sierra Leone D6; type: functional
Plasmodium falciparum [7] = experiment: Relative activity compared to artemisinin against Plasmodium falciparum Indochina W2; type: functional

Row | Compound | Relative activity (Plasmodium falciparum [1]) | Relative activity (Plasmodium falciparum [2]) | other results
1 | CC(C)CC[C@H]1C(=O)O[C@@H]2O[C@@]3(C)CC[C@H]4[C@H](C)CC[C@@H]1[C@@]24OO3 | 0.98 | 1.57 | 
2 | CO[C@H]1O[C@@]2(C)CC[C@H]3CCCC[C@]31OO2 |  |  | Relative activity (Plasmodium falciparum [3]): 0.11
3 | C=CC[C@H]1C(=O)O[C@@H]2O[C@@]3(C)CC[C@H]4[C@H](C)CC[C@@H]1[C@@]24OO3 | 0.72 | 0.31 | 
4 | O=C1C=C2CCCC3CC4OO[C@@]23[C@H](O1)O4 (single isomer, unassigned) | 0.02 | 0.02 | 
5 | C[C@@H]1CC[C@H]2CC(=O)O[C@@H]3O[C@@]4(C)CC[C@@H]1[C@@]23O4 |  |  | Relative activity (Plasmodium falciparum [4]): inactive; Relative activity (Plasmodium falciparum [5]): inactive
6 | C[C@@H]1CC[C@H]2[C@@H](CCCCc3ccccc3)C(=O)O[C@@H]3O[C@@]4(C)CC[C@@H]1[C@]32OO4 | 3 | 1.37 | 
7 | C[C@@H]1CC[C@H]2CC(=O)O[C@@H]3O[C@@]4(C)CC[C@@H]1[C@@]23OO4 | 6.5 | 1.8 | 
8 | C[C@@H]1CC[C@H]2[C@@H](C)C(=O)O[C@@H]3OC(C)(C)OO[C@@]32[C@H]1C |  |  | Relative activity (Plasmodium falciparum [3]): 0.4
9 | CC(C)CCC[C@H]1C(=O)O[C@@H]2O[C@@]3(C)CC[C@H]4[C@H](C)CC[C@@H]1[C@@]24OO3 | 0.74 | 0.31 | 
10 | C[C@@H]1CC[C@H]2[C@H](C)C(=O)O[C@@H]3O[C@@]4(C)CC[C@@H]1[C@]32OO4 | 0.67 | 0.14 | 
11 | CC(C)CC[C@H]1C(=O)O[C@@H]2O[C@@]3(C)CC[C@H]4[C@H](C)CC[C@@H]1[C@@]24O3 |  |  | Relative activity (Plasmodium falciparum [6]): 0.13; Relative activity (Plasmodium falciparum [7]): 0.14
12 | CC(C)[C@H]1C(=O)O[C@@H]2O[C@@]3(C)CC[C@H]4[C@H](C)CC[C@@H]1[C@@]24OO3 | 0.84 | 2.03 | 
13 | C[C@@H]1CC[C@H]2[C@@H](CC(=O)O)C(=O)O[C@@H]3O[C@@]4(C)CC[C@@H]1[C@]32OO4 | 0.003 | 0.002 | 
14 | C=CC[C@H]1C(=O)O[C@@H]2O[C@@]3(C)CC[C@H]4[C@H](C)CC[C@@H]1[C@@]24O3 |  |  | Relative activity (Plasmodium falciparum [4]): inactive; Relative activity (Plasmodium falciparum [5]): inactive
15 | CCCCCCCCCCCCCC[C@H]1C(=O)O[C@@H]2O[C@@]3(C)CC[C@H]4[C@H](C)CC[C@@H]1[C@@]24OO3 | 0.001 | 0.001 | 
16 | CCC[C@H]1C(=O)O[C@@H]2O[C@@]3(C)CC[C@H]4[C@H](C)CC[C@@H]1[C@@]24O3 |  |  | Relative activity (Plasmodium falciparum [6]): 0.06; Relative activity (Plasmodium falciparum [7]): 0.07
17 | CC1CCC2C(CCCCc3ccccc3)C(=O)OC3OC4(C)CCC1C32O4 (stereo unspecified) |  |  | Relative activity (Plasmodium falciparum [4]): inactive; Relative activity (Plasmodium falciparum [5]): inactive
18 | CC1CCC2C(CCc3ccccc3)C(=O)OC3OC4(C)CCC1C32O4 (stereo unspecified) |  |  | Relative activity (Plasmodium falciparum [4]): inactive; Relative activity (Plasmodium falciparum [5]): inactive
19 | C[C@@H]1CC[C@H]2[C@@H](CCc3ccccc3)C(=O)O[C@@H]3O[C@@]4(C)CC[C@@H]1[C@]32OO4 | 1 | 1.69 | 
20 | CC(C)[C@H]1C(=O)O[C@@H]2O[C@@]3(C)CC[C@H]4[C@H](C)CC[C@@H]1[C@@]24O3 |  |  | Relative activity (Plasmodium falciparum [6]): 0.02; Relative activity (Plasmodium falciparum [7]): 0.07
21 | CCCCC[C@H]1C(=O)O[C@@H]2O[C@@]3(C)CC[C@H]4[C@H](C)CC[C@@H]1[C@@]24OO3 | 8.67 | 3.67 | 
22 | CC(C)C[C@H]1C(=O)O[C@@H]2O[C@@]3(C)CC[C@H]4[C@H](C)CC[C@@H]1[C@@]24O3 |  |  | Relative activity (Plasmodium falciparum [4]): inactive; Relative activity (Plasmodium falciparum [5]): inactive
23 | C[C@@H]1CC[C@H]2[C@](C)(Br)[C@@H](Nc3ccccn3)O[C@@H]3O[C@@]4(C)CC[C@@H]1[C@]32OO4 |  |  | Relative activity (Plasmodium falciparum [3]): 0.02
24 | C[C@@H]1CC[C@H]2[C@@H](CCCc3ccccc3)C(=O)O[C@@H]3O[C@@]4(C)CC[C@@H]1[C@]32OO4 | 4.45 | 6.11 | 
25 | C[C@@H]1CC[C@H]2[C@](C)(Br)[C@@H](Nc3ccccc3)O[C@@H]3O[C@@]4(C)CC[C@@H]1[C@]32OO4 |  |  | Relative activity (Plasmodium falciparum [3]): 0.16
26 | CCCCCCCCCCCCCC[C@H]1C(=O)O[C@@H]2O[C@@]3(C)CC[C@H]4[C@H](C)CC[C@@H]1[C@@]24O3 | 0.05 | 0.05 | 
27 | CC12CCC3CCCC4CC(=O)OC(O1)C34OO2 (stereo unspecified) | 0.96 | 0.24 | 
28 | C[C@@H]1CC[C@H]2[C@@H](C)C(=O)O[C@@H]3O[C@@]4(C)CC[C@@H]1[C@]32O4 [DEOXYARTEMISININ] |  |  | Relative activity (Plasmodium falciparum [6]): 0.001; Relative activity (Plasmodium falciparum [7]): 0.001

Row | Compound | Relative activity (Plasmodium falciparum [1]) | Relative activity (Plasmodium falciparum [2]) | other results
29 | CCCC[C@H]1C(=O)O[C@@H]2OC(C)(C)OO[C@@]23CCCC[C@@H]13 |  |  | Relative activity (Plasmodium falciparum [3]): 0.1
30 | C/C=C/CC1C(=O)O[C@@H]2O[C@@]3(C)CC[C@H]4[C@H](C)CC[C@@H]1[C@@]24OO3 (single isomer, unassigned) | 0.22 | 0.38 | 
31 | C[C@@H]1CCC[C@@]23CO[C@@](C)(CC[C@@H]12)OO3 |  |  | Relative activity (Plasmodium falciparum [3]): 0.37
32 | CCCCCC[C@H]1C(=O)O[C@@H]2O[C@@]3(C)CC[C@H]4[C@H](C)CC[C@@H]1[C@@]24O3 |  |  | Relative activity (Plasmodium falciparum [6]): 0.07; Relative activity (Plasmodium falciparum [7]): 0.02
33 | C[C@H]1CO[C@@H]2O[C@@]3(C)CC[C@H]4CCC[C@@H]1[C@]42OO3 |  |  | Relative activity (Plasmodium falciparum [3]): 4.02
34 | CO[C@@H]1O[C@@]2(C)CC[C@H]3CCCC[C@]31OO2 |  |  | Relative activity (Plasmodium falciparum [3]): 0.13
35 | CC(C)CCC[C@H]1C(=O)O[C@@H]2O[C@@]3(C)CC[C@H]4[C@H](C)CC[C@@H]1[C@@]24O3 |  |  | Relative activity (Plasmodium falciparum [4]): inactive; Relative activity (Plasmodium falciparum [5]): inactive
36 | CCCCCC[C@H]1C(=O)O[C@@H]2O[C@@]3(C)CC[C@H]4[C@H](C)CC[C@@H]1[C@@]24OO3 | 5.5 | 4.67 | 
37 | C[C@@H]1CC[C@H]2C(C)(C)C(=O)O[C@@H]3O[C@@]4(C)CC[C@@H]1[C@]32O4 |  |  | Relative activity (Plasmodium falciparum [4]): inactive; Relative activity (Plasmodium falciparum [5]): inactive
38 | CC1(C)OO[C@]23CCCC[C@H]2CC(=O)O[C@@H]3O1 |  |  | Relative activity (Plasmodium falciparum [3]): 0.01
39 | CC[C@H]1C(=O)O[C@@H]2O[C@@]3(C)CC[C@H]4[C@H](C)CC[C@@H]1[C@@]24OO3 | 12.26 | 6.42 | 
40 | CC[C@H]1C(=O)O[C@@H]2O[C@@]3(C)CC[C@H]4[C@H](C)CC[C@@H]1[C@@]24O3 |  |  | Relative activity (Plasmodium falciparum [6]): 0.001; Relative activity (Plasmodium falciparum [7]): 0.001
41 | C[C@@H]1CC[C@H]2[C@@H](CCCc3ccccc3)C(=O)O[C@@H]3O[C@@]4(C)CC[C@@H]1[C@]32O4 |  |  | Relative activity (Plasmodium falciparum [6]): 0.15; Relative activity (Plasmodium falciparum [7]): 0.15
42 | C[C@@H]1CC[C@H]2[C@](C)(Br)[C@@H](Nc3nccs3)O[C@@H]3O[C@@]4(C)CC[C@@H]1[C@]32OO4 |  |  | Relative activity (Plasmodium falciparum [3]): 0.62
43 | C[C@@H]1CC[C@H]2[C@](C)(Br)[C@@H](Nc3cccc(F)c3)O[C@@H]3O[C@@]4(C)CC[C@@H]1[C@]32OO4 |  |  | Relative activity (Plasmodium falciparum [3]): 3.5
44 | C[C@@H]1CC[C@H]2C(C)(C)C(=O)O[C@@H]3O[C@@]4(C)CCC1[C@]32OO4 (stereo partly specified) | 0.006 | 0.02 | 
45 | C[C@@H]1CC[C@H]2[C@](C)(Br)[C@@H](Nc3ncccn3)O[C@@H]3O[C@@]4(C)CC[C@@H]1[C@]32OO4 |  |  | Relative activity (Plasmodium falciparum [3]): 0.01
46 | CCCC[C@H]1C(=O)O[C@@H]2O[C@@]3(C)CC[C@H]4[C@H](C)CC[C@@H]1[C@@]24OO3 | 1.28 | 0.96 | 
47 | CC(C)C[C@H]1C(=O)O[C@@H]2O[C@@]3(C)CC[C@H]4[C@H](C)CC[C@@H]1[C@@]24OO3 | 0.24 | 0.2 | 
48 | C/C=C\CC1C(=O)O[C@@H]2O[C@@]3(C)CC[C@H]4[C@H](C)CC[C@@H]1[C@@]24OO3 (single isomer, unassigned) | 0.07 | 0.09 | 
49 | C[C@@H]1CC[C@H]2[C@@H](C)C(=O)O[C@@H]3O[C@@]4(C)CC[C@@H]1[C@]32OO4 [ARTEMISININ] | 1 | 1 | 
50 | C[C@@H]1CC[C@H]2[C@H](C)C(=O)O[C@@H]3O[C@@]4(C)CC[C@@H]1[C@]32O4 |  |  | Relative activity (Plasmodium falciparum [4]): inactive; Relative activity (Plasmodium falciparum [5]): inactive
51 | CCCCC[C@H]1C(=O)O[C@@H]2O[C@@]3(C)CC[C@H]4[C@H](C)CC[C@@H]1[C@@]24O3 |  |  | Relative activity (Plasmodium falciparum [4]): inactive; Relative activity (Plasmodium falciparum [5]): inactive
52 | CCC[C@H]1C(=O)O[C@@H]2O[C@@]3(C)CC[C@H]4[C@H](C)CC[C@@H]1[C@@]24OO3 | 12.25 | 5.5 | 
53 | CCCC[C@H]1C(=O)O[C@@H]2O[C@@]3(C)CC[C@H]4[C@H](C)CC[C@@H]1[C@@]24O3 |  |  | Relative activity (Plasmodium falciparum [4]): inactive; Relative activity (Plasmodium falciparum [5]): inactive
54 | CO[C@]1(C)CC[C@H]2[C@H](C)CCC[C@]2(C=O)OO1 |  |  | Relative activity (Plasmodium falciparum [3]): 0.001
55 | C[C@]12CC[C@H]3CCCC[C@@]3(OO1)[C@H](OCc1ccccc1)O2 |  |  | Relative activity (Plasmodium falciparum [3]): 0.03
